We go through two compounds from patent publication US20230271995A1, “METHODS FOR PRODUCING DIHYDRONICOTINAMIDE RIBOSIDE FROM NICOTINAMIDE RIBOSIDE CHLORIDE” (SOCIETE DES PRODUITS NESTLE S.A., priority 2020, published 2023).

Data set [1] in a line: Thermogravimetric analysis (TGA) thermal stability under N2. It is filed as physicochemical. The conditions noted are these: 25 to 900° C.
Procedure: Characterization. […] Thermogravimetric analysis (TGA) thermograms were prepared in the range of 20-900° C. at a temperature rate of 10° C. min^−1 under N2 flow, using a TA Q100 instrument.
The subject of data set [2] is NAD^+. Conditions: NR taken as a supplement; cited from earlier work.
Data set [3] in a line: Stability of NRH and NR aqueous solutions over 60 days of storage, remaining concentration by HPLC. The conditions noted are these: aqueous solution, atmosphere not stated.

Each structure is given as a SMILES string.

As for `NC(=O)c1ccc[n+]([C@@H]2O[C@H](CO)[C@@H](O)[C@H]2O)c1` [NR, nicotinamide riboside], in data set [1] (10° C. min^−1, N2 atmosphere), the “temperature of greatest weight loss (TGA)” value is about 910 °C. In data set [2], the “boost of the level of NAD^+” value is 60%. In addition, the degradation result is listed as “no detectable degradation” in data set [3] (4° C., 60 days); 48% in data set [3] (25° C., 30 days); 68% in data set [3] (25° C., 60 days).
`NC(=O)c1ccc[n+]([C@@H]2O[C@H](CO)[C@@H](O)[C@H]2O)c1.[Cl-]` [NRCl, nicotinamide riboside chloride]: the “weight loss at the temperature of greatest weight loss (TGA)” value in data set [1] (N2 atmosphere) is recorded as “around 65%”.
